This is an account of results in patent publication US9375010B2 (priority 2013, dated 2016).

SMILES strings stand for the structures.

Data set [1] can be described thus: log P by HPLC on reversed phase columns (EEC directive 79/831 Annex V.A8). It counts as physicochemical. As to conditions: method [a]: LC-MS at pH 2.7, 0.1% formic acid in water / acetonitrile gradient, Table 1 compounds; for chromatographic logP: reversed phase HPLC column. As to the method:
Calibration was done with not branched alkan2-ones (with 3 to 16 carbon atoms) with known log P-values (measurement of log P values using retention times with linear interpolation between successive alkanones). lambda-maX-values were determined using UV-spectra from 200 nm to 400 nm and the peak values of the chromatographic signals.

Another data set has as its system Phytophthora infestans. It counts as in vivo. As to conditions: 500 ppm active ingredient, preventive spray on young tomato plants, evaluated 5 days after inoculation.
A further data set relates to Septoria tritici. The experiment in a line: In vivo preventive test on Septoria tritici (leaf spot on wheat). As to conditions: 500 ppm active ingredient, preventive spray on young wheat plants, evaluated 24 days after inoculation. The protocol:
The tested active ingredients are prepared by homogenization in a mixture of acetone/Dimethyl sulfoxide/tween®, and then diluted with water to obtain the desired active material concentration.
The young plants of wheat are treated by spraying the active ingredient prepared as described above. Control plants are treated only with an aqueous solution of acetone/Dimethyl sulfoxide/tween®.
After 24 hours, the plants are contaminated by spraying the leaves with an aqueous suspension of Septoria tritici spores. The contaminated wheat plants are incubated for 72 hours at 18° C. and at 100% relative humidity and then for 21 days at 20° C. and at 90% relative humidity.
The test is evaluated 24 days after the inoculation. 0% means an efficacy which corresponds to that of the control plants while an efficacy of 100% means that no disease is observed.

Another data set has as its system Plasmopara viticola. Description: Plasmopara test (grapevines)/preventive. The class given is in vivo. As to conditions: 10 ppm active ingredient, preventive spray on young grapevine plants, evaluated 6 days after inoculation. As to the method:
To produce a suitable preparation of active compound, 1 part by weight of active compound is mixed with the stated amounts of solvent and emulsifier, and the concentrate is diluted with water to the desired concentration.
To test for preventive activity, young plants are sprayed with the preparation of active compound at the stated rate of application. After the spray coating has dried on, the plants are inoculated with an aqueous spore suspension of Plasmopara viticola and then remain for 1 day in an incubation cabinet at approximately 20° C. and a relative atmospheric humidity of 100%. The plant is subsequently placed for 4 days in a greenhouse at approximately 21° C. and a relative atmospheric humidity of approximately 90%. The plants are then misted and placed for 1 day in an incubation cabinet.
The test is evaluated 6 days after the inoculation. 0% means an efficacy which corresponds to that of the untreated control, while an efficacy of 100% means that no disease is observed.

Take `Cn1c(/C(=N\OCc2cccc(C#Cc3ccccc3)n2)c2ccccc2)noc1=O` [Example 15]: the LogP in data set [1] is 4.26^[a]. Also, the “% efficacy” value in the data set on Phytophthora infestans is recorded as 80%.
Consider `Cn1oc(=O)nc1C(=NOCc1csc(C=CC2CCCCC2)n1)c1ccccc1` [Example 22], for which the LogP in data set [1] was 4.64^[a]. In addition, the “% efficacy” value with Phytophthora infestans was 95%; with Septoria tritici, 71%.
Turning to `Cn1oc(=O)nc1/C(=N\OCc1cccc(C#Cc2ccccc2)n1)c1ccccc1` [Example 4, 2-methyl-3-[(Z)-phenyl({[6-(phenylethynyl)pyridin-2-yl]methoxy}imino)methyl]-1,2,4-oxadiazol-5(2H)-one], in data set [1], the chromatographic logP (commonly a lipophilicity value derived from retention on a column) was found to be 3.63. Moreover, in the data set on Phytophthora infestans, the “% efficacy” value was 98%.
`Cn1oc(=O)nc1/C(=N\OCc1csc(C#CC2CC2)n1)c1ccccc1` [Example 12, 3-[(Z)-({[2-(cyclopropylethynyl)-1,3-thiazol-4-yl]methoxy}imino)(phenyl)methyl]-2-methyl-1,2,4-oxadiazol-5(2H)-one]: the chromatographic logP in data set [1] amounted to 3.13. The results for the “% efficacy” value with Phytophthora infestans and with Plasmopara viticola were 100% and 73%, respectively.
For `CC(=NO)Nc1cccc(CO/N=C(/c2ccccc2)c2nc(=O)on2C)n1` [Example 1], in data set [1], the LogP is 1.29^[a]. The “% efficacy” value in the data set on Phytophthora infestans worked out at 99%.
On to `CCCCON=C(C)Nc1cccc(CO/N=C(/c2ccccc2)c2noc(=O)n2C)n1` [Example 7], for which, in data set [1], the LogP was 3.69^[a]. Further, the “% efficacy” value with Phytophthora infestans came out at 100%.
`CC(=NO)Nc1cccc(CO/N=C(/c2ccccc2)c2noc(=O)n2C)n1` [Example 2, N′-hydroxy-N-{6-[({[(Z)-(4-methyl-5-oxo-4,5-dihydro-1,2,4-oxadiazol-3-yl)(phenyl)methylene]amino}oxy)methyl]pyridin-2-yl}ethanimidamide] had a chromatographic logP in data set [1] of 1.86. The figures for the “% efficacy” value in the data set on Phytophthora infestans and with Septoria tritici were 100% and 71%, respectively.
On to `CC(=NOCc1ccccc1)Nc1cccc(CO/N=C(/c2ccccc2)c2noc(=O)n2C)n1` [Example 9], for which, in data set [1], the LogP is 3.73^[a]. The “% efficacy” value in the data set with Phytophthora infestans is recorded as 100%.
Take `Cn1c(C(=NOCc2cccc(C=CC3CC3)n2)c2ccccc2)noc1=O` [Example 21]: the LogP in data set [1] was 3.48^[a].
For the molecule `Cn1oc(=O)nc1C(=NOCc1csc(C=CCc2ccccc2)n1)c1ccccc1` [Example 20], in data set [1], the LogP is 3.85^[a].
Regarding `CCCCON=C(C)Nc1cccc(CO/N=C(/c2ccccc2)c2nc(=O)on2C)n1` [Example 5], the LogP in data set [1] was 3.35^[a].
With `Cn1oc(=O)nc1/C(=N\OCc1cccc(C#CC2CC2)n1)c1ccccc1` [Example 6], in data set [1], the LogP was 3.02^[a].
Regarding `Cn1oc(=O)nc1C(=NOCc1csc(C#CCc2ccccc2)n1)c1ccccc1` [Example 18], in data set [1], the LogP was 3.74^[a]. Moreover, the “% efficacy” value with Phytophthora infestans was determined as 98%.
Consider `Cn1c(/C(=N\OCc2cccc(C#CC3CC3)n2)c2ccccc2)noc1=O` [Example 13], for which, in data set [1], the LogP was 3.65^[a].
Still for that read-out and setting: the figure for `Cn1oc(=O)nc1/C(=N\OCc1csc(C#CC2CCCCC2)n1)c1ccccc1` [Example 14] is 4.44^[a].
`CC(=NOCC1CC1)Nc1cccc(CO/N=C(/c2ccccc2)c2noc(=O)n2C)n1` [Example 3, N′-(cyclopropylmethoxy)-N-{6-[({[(Z)-(4-methyl-5-oxo-4,5-dihydro-1,2,4-oxadiazol-3-yl)(phenyl)methylene]amino}oxy)methyl]pyridin-2-yl}ethanimidamide] registered a chromatographic logP in data set [1] of 3.39. Besides, in the data set on Phytophthora infestans, the “% efficacy” value is listed as 99%.
Take `Cn1c(C(=NOCc2csc(C#CCc3ccccc3)n2)c2ccccc2)noc1=O` [Example 19]: the LogP in data set [1] was 4.37^[a]. For the same molecule, the “% efficacy” value came out at 90% in the data set on Phytophthora infestans and 79% in the data set on Septoria tritici.
Turning to `Cn1c(/C(=N\OCc2csc(C#CC3CCCCC3)n2)c2ccccc2)noc1=O` [Example 16], in data set [1], the LogP was 5.08^[a]. In addition, the “% efficacy” value in the data set with Phytophthora infestans is reported as 78%.
As for `Cn1c(C(=NOCc2cccc(C=Cc3ccccc3)n2)c2ccccc2)noc1=O` [Example 23], in data set [1], the LogP was 4.37^[a]. The entries for the “% efficacy” value in the data set with Phytophthora infestans and in the data set with Septoria tritici were 92% and 97%, respectively.
`Cn1oc(=O)nc1/C(=N\OCc1cccc(C#CC(C)(C)C)n1)c1ccccc1` [Example 11]: the LogP in data set [1] is 3.72^[a]. In addition, the “% efficacy” value in the data set with Phytophthora infestans and with Plasmopara viticola was 100% each time.
For the molecule `CC(=NOCc1ccccc1)Nc1cccc(CO/N=C(/c2ccccc2)c2nc(=O)on2C)n1` [Example 8], in data set [1], the LogP is 3.09^[a]. The “% efficacy” value was found to be 100% in the data set on Phytophthora infestans and 92% in the data set with Plasmopara viticola.
For the molecule `CCCCC#Cc1cccc(CO/N=C(/c2ccccc2)c2nc(=O)on2C)n1` [Example 10], in data set [1], the LogP was 3.81^[a]. The figures for the “% efficacy” value in the data set with Phytophthora infestans and in the data set with Plasmopara viticola were 100% and 96%, respectively.
With `Cn1c(C(=NOCc2csc(C#CC3CC3)n2)c2ccccc2)noc1=O` [Example 17], the LogP in data set [1] is 3.76^[a]. For the same molecule, in the data set with Phytophthora infestans, the “% efficacy” value is 99%.
